Entries after “also recorded” stand apart in the source; their conditions may differ.
Legend:
[1] = system: EAE in C57BL/6 mice; assay: Standard EAE clinical score (0-5 scale), MOG 35-55 induced EAE, C57BL/6 mice; format: in vivo, mouse; parameters: key to Standard EAE Score: n.s. = not significant; *p < 0.05; ***p = 0.0004; ****p < 0.0001; n.i. = not informative; settings: for Standard EAE Score: significance vs vehicle; for Standard EAE clinical score: vs miglyol vehicle
Source text: Animals. C57BL/6 and NOD mice 8 weeks old were purchased from Jackson Laboratories (Bar Harbor, Me.). Animals were maintained under environmentally controlled conditions in a 12-hour light/dark cycle with access to food and water ad libitum. All procedures were done in accordance with the guidelines of the National Institutes of Health and the Chancellor's Animal Research Committee of the University of California, Los Angeles Office for the Protection of Research Subjects.
Reagents. AC-186 was dissolved in either Miglyol 812N liquid oil (Sasol North America) or sesame oil (Sigma Aldrich) as following concentration; 1.5 mg/mL for 3 mg/kg group, 5 mg/mL for 10 mg/kg group, and 15 mg/mL for 30 mg/kg group. Diarylpropionitrile (DPN, Tocris Biosciences) was dissolved in 10% molecular-grade ethanol and diluted with 90% of either Miglyol 812N liquid oil or sesame oil.
EAE and Treatments. Animals were injected subcutaneously with Myelin Oligodendrocyte Glycoprotein (MOG), amino acids 35-55 (200 μg/animal, American Peptides), emulsified in complete Freund's adjuvant (CFA) and supplemented with Mycobacterium tuberculosis H37ra (300 μg/animal, Difco Laboratories), over two sites drained by left inguinal and auxiliary lymph nodes in a total volume of 0.1 ml/mouse. One week later, a booster immunization was delivered over contra lateral lymph nodes. Pertussis toxin (500 ng/mouse) (List Biological Laboratories, Inc.) was injected intraperitoneally on days 0 and 2. Animals were monitored daily for EAE signs based on a standard EAE 0-5 scale scoring system: 0—healthy, 1—complete loss of tail tonicity, 2—loss of righting reflex, 3—partial paralysis, 4—complete paralysis of one or both hind limbs, and 5—moribund. Animals received 0.05 ml of either of 1.5, 5, 15 mg/mL AC-186, vehicle (sesame oil or Miglyol 812N liquid oil), or DPN (8 mg/kg/day) via subcutaneous injections every other day. Animals were treated with AC-186 or vehicle after EAE induction. Specifically, treatment was initiated at the first clear signs of clinical disease (EAE day 13-15), and continued to the endpoint of the experiment.

[2] = system: cerebrum and cerebellum of female C57BL/6 mice with EAE; assay: Cerebral and cerebellar neuropathology (gray and white matter) in EAE; format: in vivo, mouse; settings: 30 mg/kg every other day; vs Vehicle EAE
Experimental: Histological Preparation. Mice were exposed to a lethal dose of isoflurane and perfused transcardially with ice-cold 1×PBS for 8-15 min, followed by 10% formalin for 10-15 min. Spinal cords and brains were dissected and submerged in 10% formalin overnight at 4° C., followed by 30% sucrose in PBS for 24 h. Tissues were embedded in […] solution for cryostat sectioning then post-fixed overnight in 10% formalin and cryoprotected in 30% sucrose. The embedded tissues were stored in −80° C. after flash frozen in dry ice. 40 μm thick free-floating spinal cord cross-sections, and sagittal brain sections were obtained with a microtome b cryostat (model HM505E) at −20° C. Tissues were collected serially and stored in 1×PBS with 1% sodium azide in 4° C. until immunohistochemistry.
Immunofluorescence. Prior to histological staining, […] free-floating sections were thoroughly washed with 1×PBS to remove residual sodium azide. In the case of anti-MBP labeling, tissue sections were processed with an additional 1 hour incubation with 5% glacial acetic acid in 100-proof ethanol at room temperature (RT). After washing tissue sections were permeabilized with 0.3% TritonX-100 and 2% normal goat serum in 1×PBS for 30 minutes at room temperature and blocked with 10% normal goat serum in 1×PBS for 1 hour. Tissues were then incubated with primary antibodies overnight in 4° C. The following primary antibody (Ab) were used: Rat anti-MBP (Millipore) at 1:1000 dilutions, Rabbit anti-NF200 (Sigma Aldrich) at 1:750 dilutions, Rabbit anti-beta-APP (Life Technologies) at 1:200 dilutions, Mouse anti-NeuN at 1:1000 dilutions (Millipore), Rabbit anti-PSD95, and Rabbit anti-Synapsin 1 at 1:500 dilutions (Millipore), and Rat anti-CD45 at 1:1500 dilutions (Millipore). The next day tissues were washed and incubated with secondary antibodies conjugated to Cy5 or Cy3 (Millipore) for 1 hour at room temperature. A nuclear stain DAPI (2 ng/mL; Molecular Probes) was added 10 minutes prior to final washes after secondary Ab incubation. Sections were mounted on slides, allowed to semi-dry, and cover slipped in fluoromount G (Fisher Scientific). IgG-control experiments were performed for all primary Ab, and only non-immunoreactive tissues under these conditions were analyzed.
Chromagen Immunohistochemistry. […] Tissues were then incubated with primary antibodies overnight in 4° C. The following primary antibodies were used: Rat anti-CD3 at 1:2000 dilutions (BD Pharmingen), anti-Calbindin D28K at 1:1000 dilutions (Millipore), and Rabbit anti-Iba1 at 1:10000 dilutions (Wako Chemicals), were added for 2 hour at room temperature, and then placed in 4° C. overnight. Tissue sections then followed with secondary Ab labeling at 1:1000 dilutions (Vector labs) for 1 hour at room temperature and then with Avidin-Biotin Conjugation solution (Vector Labs) for 1 hour at room temperature. Tissue sections were treated with DAB peroxidase substrate (Vector labs) according to manufacturer instructions. IgG-control experiments were performed for all primary Ab, and only non-immunoreactive tissues under these conditions were analyzed.
Microscopy and Quantification. Three spinal cord cross-sections at the C5-12 level from each mouse (n=3-6) were captured under microscope at 10× magnification. To quantify demyelination in the spinal cord and cerebellum, white matter was manually delineated on the basis of DAPI staining, and MBP staining intensity was calculated and reported in the sampled area. Axonal damage was assessed by counting beta-APP^+ cells in a confocal 10× microscope in spinal cord. Axonal densities were calculated by counting the number of NF200^+ or NeuN^+ neuronal cells in a 10× confocal image in the sampled area of the captured tissue section. Cerebellar Purkinje (Calbindin^+) cells were manually counted using a brightfield 10× microscope over the entire sagittal cerebellum. […]

## Oc1ccc(C2(c3ccccc3F)CCC(F)(F)CC2)cc1 [AC-186]
[1]; C57BL/6 F, AC186 3 mg/kg, sesame vehicle
  Standard EAE Score: n.s.
[1]; C57BL/6 F, AC186 10 mg/kg, miglylol vehicle
  Standard EAE Score: **** (less robust that 30 mg/kg) (****p < 0.0001)
[1]; C57BL/6 F, AC186 10 mg/kg, sesame vehicle
  Standard EAE Score: n.s.
[1]; C57BL/6 F, AC186 30 mg/kg, miglylol vehicle
  Standard EAE Score: **** (****p < 0.0001)
[1]; C57BL/6 F, AC186 30 mg/kg, sesame vehicle
  Standard EAE Score: * (*p < 0.05)
[1]; C57BL/6 M, AC186 30 mg/kg, miglylol vehicle
  Standard EAE Score: **** (****p < 0.0001)
[1]; C57BL/6 M, AC186 30 mg/kg, sesame vehicle
  Standard EAE Score: n.s.
[1]; female C57BL/6, 3 mg/kg s.c. every other day in sesame oil, vs vehicle
  EAE score: no effect on the EAE score
[1]; female C57BL/6, 10 mg/kg in miglyol
  Standard EAE clinical score: significant efficacy in ameliorating the standard EAE clinical scores; also recorded: ameliorated
[1]; female C57BL/6, 10 mg/kg s.c. every other day in sesame oil, vs vehicle
  EAE score: a trend toward improvement
[1]; female C57BL/6, 30 mg/kg in miglyol
  Standard EAE clinical score: significant efficacy in ameliorating the standard EAE clinical scores; also recorded: beneficial effects; also recorded: ameliorated
[1]; female C57BL/6, 30 mg/kg s.c. every other day in sesame oil, from first clinical signs, vs vehicle
  EAE score: a significant effect in ameliorating standard EAE clinical scores; also recorded: displayed the best EAE score; also recorded: significantly less severe EAE scores
[1]; male C57BL/6, 30 mg/kg in miglyol, vs miglyol alone
  EAE score: performed significantly better; also recorded: better EAE scores
[1]; male C57BL/6, 30 mg/kg in sesame oil, vs sesame oil alone
  EAE score: did not perform significantly better; also recorded: did not display efficacy
[2]
  Axonal densities (NF200), cerebellar white matter: a protective effect; also recorded: significantly more axon numbers
  Axonal densities (NF200), cerebral white matter (splenium of the corpus callosum): a protective effect; also recorded: significantly more axon numbers
  Calbindin+ Purkinje cells, cerebellar gray matter: prevented; also recorded: a protective effect; also recorded: higher numbers of Calbindin^+ Purkinje cells
  Myelin staining intensity (MBP), cerebellar white matter: a protective effect; also recorded: higher MBP staining intensity
  Myelin staining intensity (MBP), cerebral white matter (splenium of the corpus callosum): a protective effect; also recorded: a trend for higher MBP staining intensity
  NeuN+ neuronal cells, cerebral cortex gray matter: prevented; also recorded: a protective effect; also recorded: higher numbers of NeuN^+ cortical neurons
  PSD-95 staining, cerebellar gray matter (molecular layer): prevented; also recorded: a protective effect; also recorded: greater PSD-95 and Synapsin1 staining
  PSD-95 staining, cerebral cortex gray matter: prevented; also recorded: a protective effect; also recorded: greater PSD-95 staining
  Synapsin1 staining, cerebellar molecular layer: a protective effect; also recorded: greater PSD-95 and Synapsin1 staining
  Synapsin-1 staining, cerebral cortex gray matter: No effect was observed; also recorded: no significant differences in Synapsin-1 staining

Reference: patent US11628146B2, “Estrogen receptor ligand treatment for neurodegenerative diseases” (The Regents of the University of California, priority 2014, dated 2023)
